Measurements reported in patent US20070112013A1, “Method of modulating ion channel functional activity” (Australian National University, priority 1998, published 2007).

Legend:
Vpu ion channel [1] = target: T1, Vpu ion channel (Human immunodeficiency virus type 1 group M subtype B, UniProt P05919); experiment: Vpu ion channel activity in planar lipid bilayers; assay type: biochemical, HIV-1; conditions: concentrations of 50-250μM
T1 construct: The vpu ORF was cloned in-frame at the 3′ end of the GST gene in p2GEX to generate p2GEXVpu; GST (N, cleaved yes); made in house; host or cells: E. coli XL1-blue containing p2GEXVpu
From the text: FIG. 6 is a graphical representation of the inhibition of Vpu ion channel activity by 5-(N,N-hexamethylene)-arniloride (HMA) in planar lipid bilayers. The three traces represent typical Vpu channel activity observed in the presence of the indicated concentrations of HMA. The solid line indicates the zero current level. Mean currents (±variance), calculated for continuous channel recordings of at least 30 seconds duration, are plotted in the graph for each of the three drug concentrations.
Purified Vpu was tested for its ability to induce channel activity in planar lipid bilayers using standard techniques as described elsewhere (Miller, 1986; and Piller et al, 1996). The solutions in the CIS and TRANS chambers were separated by a Delrin™ plastic wall containing a small circular hole of approximately 100 μm diameter across which a lipid bilayer was painted so as to form a high resistance electrical seal. Bilayers were painted from a mixture (8:2) of palrnitoyl-oleoly-phosphatidyl-ethanolamine and palmitoyl-oleoly-phosphatidyl-choline (Avanti Polar Lipids, Alabaster, Alabama) in n-decane. The solutions in the two chambers contained MES buffer (10 mM, pH 6.0) to which various NaCl or KCl concentrations were added. Currents were recorded with an Axopatch™ 200 amplifier. The electrical potential between the two chambers could be manipulated between ±200 mV (TRANS relative to grounded CIS). Aliquots containing Vpu were added to the CIS chamber either as a detergent solution or after incorporation of the protein into phospholipid vesicles. The chamber was stirred until currents were observed.

HIV-1 [2] = experiment: p24 ELISA of HIV virion production in human monocytes and macrophages; assay type: cell-based
Method: FIG. 7 is a graphical representation of the effect of HMA on HIV virion production in monocytes and monocyte-derived macrophages. HIV in culture supernatants was assayed at various days post-infection by detection of p24 antigen using a quantitative ELISA method. Solid black bars represent HIV-infected cells exposed to 10 μM HMA. Hatched bars are control cells not exposed to drug.
Human monocytes were isolated from peripheral blood and cultured either for 24 hr (one day old monocytes) or for 7 days to allow differentiation into monocyte derived macrophages (MDM). […] The progression and extent of viral replication was assayed using either an HIV DNA PCR method (Fear et al, 1998) or an ELISA method to quantitate p24 in culture supernatants (Kelly et al, 1998).
(§1) Subsequent tests were carried out to establish whether there was any anti-viral activity of HMA and DMA. Two tests were performed to characterise the effects of the drugs on HIV replication in human monocytes and macrophages: a) A PCR based assay was used to detect newly synthesised DNA arising from reverse transcription of the HIV genome, an early stage in virus replication; b) An ELISA method was used to quantitate production of the viral protein p24, reflecting a later stage in the replication process.

HIV-1 [3] = experiment: PCR based assay of newly synthesised HIV DNA in human monocytes and macrophages; assay type: cell-based; conditions: 50 μM
Method: Human monocytes were isolated from peripheral blood and cultured either for 24 hr (one day old monocytes) or for 7 days to allow differentiation into monocyte derived macrophages (MDM). These cells were then exposed to cell-free preparations of HIV isolates and allowed to absorb for 2 hr before complete aspiration of the medium, washing once with virus-free medium and resuspension in fresh medium. The cells were exposed to 50-10 μM HMA or DMA either 24 hr prior to infection or after infection. Subsequent HIV replication, at various times after infection, was compared in cells exposed to drugs and in cells not exposed to drugs (controls). The progression and extent of viral replication was assayed using either an HIV DNA PCR method (Fear et al, 1998) or an ELISA method to quantitate p24 in culture supernatants (Kelly et al, 1998).
as §1

Vpu ion channel [4] = target: T1, Vpu ion channel; experiment: Bio-assay for Vpu channel blockers: growth of E. coli XL1-blue expressing Vpu on plates lacking adenine; assay type: cell-based, HIV-1; conditions: XL1-blue E. coli containing pPL-Vpu, medium lacking adenine, 37° C.
Method: FIG. 5 is a graphical representation of the screening of drugs for potential Vpu channel blockers. […] Numbers 6-11 are located at the sites of application of various drugs being tested, which were applied in 3μl drops and allowed to soak into the agarose. The plate was then incubated at 37° C. for 48hr prior to being photographed. The background grey shade corresponds to areas of no bacterial growth. The bright circular area around “10” represents bacterial cell growth as a result of application of adenine at that location (positive control).
As part of a search for drugs that block the Vpu ion channel, a novel bio-assay was developed to facilitate the screening process which would be prohibitively slow if performed in the bilayer assay (Ewart et al, 1996). This bio-assay is based on the observation that expression of Vpu in E.coli results in an active Vpu channel located in the plasmalemma that dissipates the transmembrane sodium gradient. As a consequence of this Vpu channel activity, metabolites whose accumulation within the cells is mediated by a sodium dependent co-transporter (for example proline or adenine) leak out of the cell faster than they can be synthesised so that the metabolites' intracellular levels become limiting for growth of the cell. Thereby, an E. coli cell expressing Vpu is unable to grow in minimal drop-out media lacking adenine or proline. However, in the presence of a drug that blocks the Vpu channel, the cell is once again able to re-establish its transmembrane sodium gradient—due to the action of other ion pumps in the membrane—and the leakage of metabolites is prevented enabling growth.
It was observed that, due to an uncharacterised mutation in the adenine synthesis pathway, growth of E. coli cells of the XL1-blue strain expressing Vpu at 37° C. was dependant on the presence of adenine in the medium. […]

HIV = experiment: Effect on HIV replication (test not specified); assay type: cell-based

T1 sequence (P05919 whole entry): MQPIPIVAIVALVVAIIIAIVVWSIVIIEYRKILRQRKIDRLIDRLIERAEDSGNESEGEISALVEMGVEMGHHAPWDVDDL

| SMILES | inhibition of Vpu ion-channel activity (Vpu ion channel [1]) | HIV virion synthesis (p24 ELISA) (HIV-1 [2]; 50 μM, data not shown) | synthesis of HIV DNA in the cells (HIV-1 [3]) | halo of bacterial growth around the site of application (inhibition of Vpu channel) (Vpu ion channel [4]) | halo of bacterial growth around the site of application (inhibition of Vpu channel) (Vpu ion channel [4]; listed as 5-(N,N-hexamethylene)-anmiloride) | HIV virion synthesis (p24 ELISA) (HIV-1 [2]; 10 μM, monocytes (FIG. 7A) and macrophages (FIG. 7B)) | effect on HIV replication (HIV) |
| --- | --- | --- | --- | --- | --- | --- | --- |
| CN(C)c1nc(N)c(C(=O)N=C(N)N)nc1Cl [DMA, 5-(N,N-Dimethyl)-Amiloride] | inhibit channel activity, though not as potently as HMA | clear inhibition of HIV virion synthesis | inhibited synthesis of HIV DNA | – | – | – | – |
| NC(N)=NC(=O)c1nc(Cl)c(N2CCCCCC2)nc1N [HMA, 5-(N,N-Hexamethylene)-Amiloride] | block ion flow through the channel | – | – | a halo of growth | smaller halo of bacterial growth | clear inhibition of HIV virion synthesis | – |
| N=C(N)NC(=O)c1nc(Cl)c(N)nc1N [amiloride, reference compound] | not active as a channel blocker | – | – | did not produce a halo of bacterial growth | – | – | no effect on HIV replication |
